Measured values taken from patent publication US10022342B2, “Methods and compositions for treating multiple myeloma” (Ohio State Innovation Foundation, priority 2015, dated 2018).
Values belong to the compound of their own block, whether it stands above or below them.

Columns and labels:
MM cells = assay: IC50 concentrations of HDAC inhibitors in MM cells; type: cell-based; conditions: Homo sapiens
[1] = test system: U266, RPMI, and MM1S cells; assay: Apoptosis (annexin) and necrosis (propidium iodide) by HDAC inhibitors, FIG. 15; type: cell-based, human
Method: Apoptosis was measured by annexin staining while cell necrosis was measured by propidium iodide staining.
CD44 surface expression was analyzed by staining cells with CD44-FITC antibody (BD Biosciences) for 30 min. in the dark, at room temperature. Apoptosis was measured by Annexin V-FITC and Propidium Iodide (PI) (Clontech) staining for 15 min. in the dark, at room temperature and data immediately acquired on a Beckman Coulter FC500 (Beckman Coulter) machine. Analysis was conducted using the FlowJo Software vX.0.7 (Tree Star Inc.). For the multiparametric analysis, the bone marrow samples were stained with CD38-PE (347687; BD Bioscience), CD138-APC (347193; BD Bioscience), CD45-ECD (A07784; Beckman Coulter), CD44-FITC (BD Bioscience) and AnnexinV-FITC (Clontech) for 30 minutes, washed with PBS and immediately analyzed with Gallios cytometer (Beckman Coulter).

MM.1S GFP/Luc+ cells = assay: NOD-SCID mice engrafted i.v. with MM.1S GFP/Luc+ cells, oral AR-42 + pomalidomide; type: in vivo; conditions: 25 mg/kg each
From the text: To investigate whether the oral combination treatment of AR-42 and pomalidomide improves the survival of mice engrafted with MM cells, 40 NOD-SCID mice were engrafted with 10×10^6 MM.1S GFP/Luc+ cells by intravenous injection (IV). Ten days later, mice with the same tumor burden (as calculated by luminescence) (FIG. 14C) were randomly divided into 4 treatment groups (10 mice per group): AR-42 alone, pomalidomide alone, AR-42+pomalidomide, and vehicle control (Ctrl, 8% DMSO in PBS). Mice were treated by oral administration (gavage) daily with pomalidomide (25 mg/kg) or Ctrl, and three times a week (Mon-Tues-Fri) with AR-42 (25 mg/kg) or Ctrl, until elimination criteria, including paralysis, extreme weight loss and dehydration, were reached.

- IC50 (MM cells): 10 nM
Compound: Cc1[nH]c2ccccc2c1CCNCc1ccc(/C=C/C(=O)NO)cc1 [LBH, reference compound]
- dose response curve ([1]; data not shown): No dose response curve could be obtained

Compound: O=C(CCCCCCC(=O)Nc1ccccc1)NO [SAHA, suberoylanilide hydroxamic acid, reference compound]
- apoptosis (annexin staining) ([1]; 24 and 48 hours, 0.25, 0.5, and 1 μM): limited impact on apoptosis

Compound: Nc1cccc2c1C(=O)N(C1CCC(=O)NC1=O)C2=O (stereo not shown) [pomalidomide, reference compound]
- median survival (MM.1S GFP/Luc+ cells): 42 days
